The values below come from patent US20250276964A1 (Novartis AG, priority 2021, published 2025).

The target of this assay is T1, WIZ (Homo sapiens, UniProt O95785+Q96SW2).
T1 construct: expressed in transfected cells
Nature of the assay: Quantification of WIZ protein levels in HiBit tag fusion protein assay (WIZ HiBit assay in 293T cells). The class given is cell-based. The conditions noted are these: for Dmax at 25 µM / remaining activity at 25 µM: HEK-293T; for Dmax at 25 µM: read-out: % degradation of WIZ (100-Amax); for remaining activity at 25 µM: read-out: WIZ Amax; for DC50: WIZ HiBit assay in 293T cells, 10-point, 5-fold dilution, highest concentration 25 μM, about 18 hours, read-out: WIZ AC50. In a few lines:
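293T cells stably carrying single-copy HiBit-WIZ (HSVTK promoter) treated ~18 h at 37 °C with 10-point, 5-fold dilutions, top 25 μM. Lytic HiBit luminescence read; Amax is DMSO-normalised, curve-fitted % WIZ-HiBit remaining at 25 uM.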

Where [1] appears, read: DMSO-normalized, curve-fitted percentage of WIZ-HiBit remaining at 25 uM.

T1 sequence (O95785 whole entry): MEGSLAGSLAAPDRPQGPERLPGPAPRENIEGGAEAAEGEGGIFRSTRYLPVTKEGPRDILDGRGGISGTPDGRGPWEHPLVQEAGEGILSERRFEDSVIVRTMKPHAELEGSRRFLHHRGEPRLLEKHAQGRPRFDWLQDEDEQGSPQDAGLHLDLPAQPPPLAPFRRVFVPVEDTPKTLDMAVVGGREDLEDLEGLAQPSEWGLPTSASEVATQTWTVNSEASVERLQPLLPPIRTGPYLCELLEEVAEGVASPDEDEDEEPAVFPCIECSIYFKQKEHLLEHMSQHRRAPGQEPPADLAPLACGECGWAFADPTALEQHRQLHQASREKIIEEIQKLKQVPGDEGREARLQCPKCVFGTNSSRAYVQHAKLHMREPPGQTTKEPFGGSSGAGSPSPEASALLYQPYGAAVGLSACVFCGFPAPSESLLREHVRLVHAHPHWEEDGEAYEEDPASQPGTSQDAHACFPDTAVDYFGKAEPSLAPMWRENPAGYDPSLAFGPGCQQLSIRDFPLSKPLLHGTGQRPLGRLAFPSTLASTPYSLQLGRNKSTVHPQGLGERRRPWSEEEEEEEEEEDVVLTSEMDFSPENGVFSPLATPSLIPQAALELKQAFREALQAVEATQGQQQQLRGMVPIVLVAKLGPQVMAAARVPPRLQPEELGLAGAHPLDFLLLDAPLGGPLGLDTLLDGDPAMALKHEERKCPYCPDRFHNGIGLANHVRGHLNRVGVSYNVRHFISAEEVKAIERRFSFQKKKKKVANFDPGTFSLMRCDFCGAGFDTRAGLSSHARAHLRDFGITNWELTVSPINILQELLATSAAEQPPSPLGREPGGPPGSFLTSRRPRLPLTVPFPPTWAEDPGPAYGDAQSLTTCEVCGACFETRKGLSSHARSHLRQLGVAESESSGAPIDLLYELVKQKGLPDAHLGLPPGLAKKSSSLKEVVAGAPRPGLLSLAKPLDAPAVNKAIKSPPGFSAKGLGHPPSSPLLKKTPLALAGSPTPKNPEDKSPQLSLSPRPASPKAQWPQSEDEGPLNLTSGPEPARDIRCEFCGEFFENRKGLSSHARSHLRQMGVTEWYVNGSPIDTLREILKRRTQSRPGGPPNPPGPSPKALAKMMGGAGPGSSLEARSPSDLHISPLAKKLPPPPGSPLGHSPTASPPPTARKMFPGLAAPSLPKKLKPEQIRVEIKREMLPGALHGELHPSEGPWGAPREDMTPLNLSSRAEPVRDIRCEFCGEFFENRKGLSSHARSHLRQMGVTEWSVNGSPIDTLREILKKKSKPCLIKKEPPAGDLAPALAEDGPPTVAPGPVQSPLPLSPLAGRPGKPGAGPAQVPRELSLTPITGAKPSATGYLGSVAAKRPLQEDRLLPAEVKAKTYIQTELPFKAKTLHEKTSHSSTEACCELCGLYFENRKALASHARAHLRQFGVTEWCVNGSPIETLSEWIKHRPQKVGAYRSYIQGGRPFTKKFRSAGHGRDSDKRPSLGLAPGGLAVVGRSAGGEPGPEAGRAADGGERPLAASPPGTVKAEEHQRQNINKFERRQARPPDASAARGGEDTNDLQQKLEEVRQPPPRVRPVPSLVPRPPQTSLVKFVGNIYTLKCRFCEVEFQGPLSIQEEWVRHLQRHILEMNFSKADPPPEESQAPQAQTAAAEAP
T1 sequence (Q96SW2 whole entry): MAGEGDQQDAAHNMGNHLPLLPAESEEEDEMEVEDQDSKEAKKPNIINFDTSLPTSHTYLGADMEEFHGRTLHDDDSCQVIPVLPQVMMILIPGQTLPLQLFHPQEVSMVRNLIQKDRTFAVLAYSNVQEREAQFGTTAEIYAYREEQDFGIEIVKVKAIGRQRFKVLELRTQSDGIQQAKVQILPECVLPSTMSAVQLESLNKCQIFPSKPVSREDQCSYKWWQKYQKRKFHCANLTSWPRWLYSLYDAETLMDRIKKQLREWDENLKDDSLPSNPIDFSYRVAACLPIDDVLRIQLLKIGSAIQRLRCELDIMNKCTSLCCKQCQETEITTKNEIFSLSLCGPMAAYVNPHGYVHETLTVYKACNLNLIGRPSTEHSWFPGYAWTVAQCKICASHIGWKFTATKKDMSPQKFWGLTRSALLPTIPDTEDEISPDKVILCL
T1 sequence (Q16531 whole entry partner): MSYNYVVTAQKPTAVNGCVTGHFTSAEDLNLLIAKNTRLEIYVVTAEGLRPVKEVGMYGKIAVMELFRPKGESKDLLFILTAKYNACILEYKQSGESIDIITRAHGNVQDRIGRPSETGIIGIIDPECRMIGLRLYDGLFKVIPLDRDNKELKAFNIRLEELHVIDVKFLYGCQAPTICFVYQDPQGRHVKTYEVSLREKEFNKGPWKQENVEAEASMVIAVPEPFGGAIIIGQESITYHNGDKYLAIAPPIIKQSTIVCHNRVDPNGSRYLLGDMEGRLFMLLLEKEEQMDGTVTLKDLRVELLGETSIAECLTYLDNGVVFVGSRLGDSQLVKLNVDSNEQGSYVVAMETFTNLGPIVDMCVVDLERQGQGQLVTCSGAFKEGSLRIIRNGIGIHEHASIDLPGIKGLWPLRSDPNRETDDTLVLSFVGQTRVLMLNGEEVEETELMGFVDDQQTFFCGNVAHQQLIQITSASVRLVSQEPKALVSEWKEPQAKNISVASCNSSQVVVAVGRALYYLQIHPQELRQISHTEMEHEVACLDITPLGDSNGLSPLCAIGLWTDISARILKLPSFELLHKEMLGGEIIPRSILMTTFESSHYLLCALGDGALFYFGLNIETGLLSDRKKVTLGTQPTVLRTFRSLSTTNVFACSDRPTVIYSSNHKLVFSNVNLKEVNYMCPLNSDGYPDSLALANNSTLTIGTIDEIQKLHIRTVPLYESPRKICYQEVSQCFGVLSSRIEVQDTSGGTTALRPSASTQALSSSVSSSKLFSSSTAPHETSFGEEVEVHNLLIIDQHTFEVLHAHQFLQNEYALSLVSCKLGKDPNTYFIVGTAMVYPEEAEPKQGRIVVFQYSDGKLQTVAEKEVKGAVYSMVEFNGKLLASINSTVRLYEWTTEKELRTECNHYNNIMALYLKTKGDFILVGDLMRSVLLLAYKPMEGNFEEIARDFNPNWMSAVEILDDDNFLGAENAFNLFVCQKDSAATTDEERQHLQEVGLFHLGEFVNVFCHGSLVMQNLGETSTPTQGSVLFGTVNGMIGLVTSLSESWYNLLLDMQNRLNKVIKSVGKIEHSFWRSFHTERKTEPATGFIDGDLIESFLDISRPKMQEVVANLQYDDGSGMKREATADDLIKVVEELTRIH

As for `C[C@@H]1CN(CC2CCOCC2)CCN1Cc1ccc2onc(N3CCC(=O)NC3=O)c2c1` [Example 67, (R)-1-(5-((2-methyl-4-((tetrahydro-2H-pyran-4-yl)methyl)piperazin-1-yl)methyl)benzo[d]isoxazol-3-yl)dihydropyrimidine-2,4(1H,3H)-dione], the DC50 is 9 nM. Also, for the setting “100 minus Amax at 25 uM”, the Dmax at 25 µM stood at 89%. Also, the remaining activity at 25 µM under setting [1] turned out to be 11%.
In the same order, the values of `CN1CCN(Cc2ccc3onc(N4CCC(=O)NC4=O)c3c2)CC1` [Example 22, 1-(5-((4-methylpiperazin-1-yl)methyl)benzo[d]isoxazol-3-yl)dihydropyrimidine-2,4(1H,3H)-dione] are 10 nM, 91% and 9%.
`Cc1c(CN2CCN(C)[C@@H](C)C2)ccc2onc(N3CCC(=O)NC3=O)c12` [Example 129, (S)-1-(5-((3,4-dimethylpiperazin-1-yl)methyl)-4-methylbenzo[d]isoxazol-3-yl)dihydropyrimidine-2,4(1H,3H)-dione]: the DC50 was 9 nM. The Dmax at 25 µM (100 minus Amax at 25 uM) came out at 86%. Besides, the remaining activity at 25 µM under setting [1] was 14%.
In the same order, the values of `CN1CCN(Cc2ccc3onc(N4CCC(=O)NC4=O)c3c2)C[C@@H]1C(F)F` [Example 118, (R)-1-(5-((3-(difluoromethyl)-4-methylpiperazin-1-yl)methyl)benzo[d]isoxazol-3-yl)dihydropyrimidine-2,4(1H,3H)-dione] are 208 nM, 80% and 20%.
In the same order, the values of `CC(C)(C)OC(=O)N1CCCC(Cc2ccc3onc(N4CCC(=O)NC4=O)c3c2)C1` (stereo not drawn) [Example 42, tert-butyl 3-((3-(2,4-dioxotetrahydropyrimidin-1 (2H)-yl)benzo[d]isoxazol-5-yl)methyl)piperidine-1-carboxylate] are 1010 nM, 82% and 18%.
The corresponding values for `C[C@@H]1CN(C)C[C@H](C)N1Cc1ccc2onc(N3CCC(=O)NC3=O)c2c1` [Example 108, 1-(5-(((2R,6S)-2,4,6-trimethylpiperazin-1-yl)methyl)benzo[d]isoxazol-3-yl)dihydropyrimidine-2,4(1H,3H)-dione] are 577 nM, 69% and 31%.
Regarding `CC(C)CN1CCC(Cc2ccc3onc(N4CCC(=O)NC4=O)c3c2)CC1` [Example 5, 1-(5-((1-isobutylpiperidin-4-yl)methyl)benzo[d]isoxazol-3-yl)dihydropyrimidine-2,4(1H,3H)-dione], the DC50 turned out to be 14 nM. For the same molecule, the Dmax at 25 µM (100 minus Amax at 25 uM) stood at 91%. The remaining activity at 25 µM under setting [1] worked out at 9%.
In the same order, the values of `O=C1CCN(c2noc3ccc(CN4CC5CCC4CN5CC4CCOCC4)cc23)C(=O)N1` (single isomer, unassigned) [Example 121, 1-(5-((5-((tetrahydro-2H-pyran-4-yl)methyl)-2,5-diazabicyclo[2.2.2]octan-2-yl)methyl)benzo[d]isoxazol-3-yl)dihydropyrimidine-2,4(1H,3H)-dione] are 317 nM, 86% and 14%.
The corresponding values for `O=C1CCN(c2noc3ccc(CC4CCN(CC5CCC5)CC4)cc23)C(=O)N1` [Example 3, 1-(5-((1-(cyclobutylmethyl)piperidin-4-yl)methyl)benzo[d]isoxazol-3-yl)dihydropyrimidine-2,4(1H,3H)-dione] are 10 nM, 92% and 8%.
For the molecule `O=C1CCN(c2noc3ccc(CC4CCN(Cc5ccccc5)CC4)cc23)C(=O)N1` [Example 9, 1-(5-((1-benzylpiperidin-4-yl)methyl)benzo[d]isoxazol-3-yl)dihydropyrimidine-2,4(1H,3H)-dione], the DC50 came out at 56 nM. Further, the Dmax at 25 µM (100 minus Amax at 25 uM) was 91%. Also, under setting [1], the remaining activity at 25 µM was 9%.
In the same order, the values of `Cc1c(CN2CCN(CC3CC3)[C@@H](C)C2)ccc2onc(N3CCC(=O)NC3=O)c12` [Example 130, (S)-1-(5-((4-(cyclopropylmethyl)-3-methylpiperazin-1-yl)methyl)-4-methylbenzo[d]isoxazol-3-yl)dihydropyrimidine-2,4(1H,3H)-dione] are 6 nM, 86% and 14%.
As for `O=C1CCN(c2noc3ccc(CN4CCN(CC5CCOCC5)CC4)cc23)C(=O)N1` [Example 23, 1-(5-((4-((tetrahydro-2H-pyran-4-yl)methyl)piperazin-1-yl)methyl)benzo[d]isoxazol-3-yl)dihydropyrimidine-2,4(1H,3H)-dione], the DC50 was found to be 4 nM. Further, for the setting “100 minus Amax at 25 uM”, the Dmax at 25 µM worked out at 91%. Also, the remaining activity at 25 µM under setting [1] turned out to be 9%.
The corresponding values for `Cc1c(CN2CCN(CC(C)C)[C@@H](C)C2)ccc2onc(N3CCC(=O)NC3=O)c12` [Example 128, (S)-1-(5-((4-isobutyl-3-methylpiperazin-1-yl)methyl)-4-methylbenzo[d]isoxazol-3-yl)dihydropyrimidine-2,4(1H,3H)-dione] are 7 nM, 88% and 12%.
Take `O=C1CCN(c2noc3ccc(CN4CCN(Cc5cccc(F)c5)CC4)cc23)C(=O)N1` [Example 27, 1-(5-((4-(3-fluorobenzyl)piperazin-1-yl)methyl)benzo[d]isoxazol-3-yl)dihydropyrimidine-2,4(1H,3H)-dione]: the DC50 came out at 210 nM. Also, for the setting “100 minus Amax at 25 uM”, the Dmax at 25 µM was 86%. For the same molecule, the remaining activity at 25 µM under setting [1] turned out to be 14%.
As for `O=C1CCN(c2noc3ccc(CN4C[C@@H]5C[C@H]4CN5CC4CCOCC4)cc23)C(=O)N1` [Example 95, 1-(5-(((1S,4S)-5-((tetrahydro-2H-pyran-4-yl)methyl)-2,5-diazabicyclo[2.2.1]heptan-2-yl)methyl)benzo[d]isoxazol-3-yl)dihydropyrimidine-2,4(1H,3H)-dione], the DC50 is 188 nM. Further, the Dmax at 25 µM (100 minus Amax at 25 uM) is 82%. In addition, the remaining activity at 25 µM under setting [1] is 18%.
In the same order, the values of `CC(C)(C)OC(=O)N1C[C@H]2C[C@@H]1CN2Cc1ccc2onc(N3CCC(=O)NC3=O)c2c1` [Example 96, tert-butyl (1R,4R)-5-((3-(2,4-dioxotetrahydropyrimidin-1(2H)-yl)benzo[d]isoxazol-5-yl)methyl)-2,5-diazabicyclo[2.2.1]heptane-2-carboxylate] are 1090 nM, 66% and 34%.
In the same order, the values of `O=C1CCN(c2noc3ccc(CC4CCCNC4)cc23)C(=O)N1` (stereo not drawn) [Example 43, 1-(5-(piperidin-3-ylmethyl)benzo[d]isoxazol-3-yl)dihydropyrimidine-2,4(1H,3H)-dione] are 940 nM, 78% and 22%.
As to `O=C1CCN(c2noc3ccc(CN4CCN(C5CC5)CC4)cc23)C(=O)N1` [Example 119, 1-(5-((4-cyclopropylpiperazin-1-yl)methyl)benzo[d]isoxazol-3-yl)dihydropyrimidine-2,4(1H,3H)-dione], the DC50 is 189 nM. The Dmax at 25 µM (100 minus Amax at 25 uM) is 86%. The remaining activity at 25 µM under setting [1] amounted to 14%.
In the case of `CN1CCN(Cc2ccc3onc(N4CCC(=O)NC4=O)c3c2)CC1(C)C` [Example 92, 1-(5-((3,3,4-trimethylpiperazin-1-yl)methyl)benzo[d]isoxazol-3-yl)dihydropyrimidine-2,4(1H,3H)-dione], the DC50 was determined as 4 nM. Moreover, the Dmax at 25 µM (100 minus Amax at 25 uM) was 82%. Besides, the remaining activity at 25 µM under setting [1] is 18%.
Consider `CN1C[C@H]2C[C@@H]1CN2Cc1ccc2onc(N3CCC(=O)NC3=O)c2c1` [Example 97], for which the DC50 worked out at 192 nM. Besides, the Dmax at 25 µM (100 minus Amax at 25 uM) turned out to be 84%. Further, the remaining activity at 25 µM under setting [1] amounted to 16%.
With `CS(=O)(=O)N1CC2CCC1CN2Cc1ccc2onc(N3CCC(=O)NC3=O)c2c1` (single isomer, unassigned) [Example 126, 1-(5-((5-(methylsulfonyl)-2,5-diazabicyclo[2.2.2]octan-2-yl)methyl)benzo[d]isoxazol-3-yl)dihydropyrimidine-2,4(1H,3H)-dione], the DC50 turned out to be 134 nM. Moreover, the “% degradation of WIZ (100-Amax)” value (100 minus Amax at 25 uM) amounted to 83%. The “WIZ Amax” value under setting [1] came out at 17%.
Consider `CC(C)[C@H]1CN(Cc2ccc3onc(N4CCC(=O)NC4=O)c3c2)CCN1C` [Example 37, (S)-1-(5-((3-isopropyl-4-methylpiperazin-1-yl)methyl)benzo[d]isoxazol-3-yl)dihydropyrimidine-2,4(1H,3H)-dione], for which the DC50 turned out to be 260 nM. Where the note is “100 minus Amax at 25 uM”, the Dmax at 25 µM was found to be 80%. In addition, under setting [1], the remaining activity at 25 µM was found to be 20%.
For the molecule `O=C1CCN(c2noc3ccc(CC4CCN(CCC5CCCCC5)CC4)cc23)C(=O)N1` [Example 11, 1-(5-((1-(2-cyclohexylethyl)piperidin-4-yl)methyl)benzo[d]isoxazol-3-yl)dihydropyrimidine-2,4(1H,3H)-dione], the DC50 amounted to 11 nM. The Dmax at 25 µM (100 minus Amax at 25 uM) turned out to be 90%. Moreover, the remaining activity at 25 µM under setting [1] was 10%.
In the case of `O=C1CCN(c2noc3ccc(CN4CCN5CCOC[C@H]5C4)cc23)C(=O)N1` [Example 110, (R)-1-(5-((hexahydropyrazino[2,1-c][1,4]oxazin-8(1H)-yl)methyl)benzo[d]isoxazol-3-yl)dihydropyrimidine-2,4(1H,3H)-dione], the DC50 turned out to be 65 nM. In addition, for the setting “100 minus Amax at 25 uM”, the Dmax at 25 µM came to 85%. The remaining activity at 25 µM under setting [1] amounted to 15%.
